Data set [1] concerns C. neoformans FTase (CnFTase). Kind of data set: CnFTase activity assay, farnesylation of a fluorescent (dansylated) peptide, 1μMIC50. The data set is classed as biochemical, Cryptococcus neoformans. As to the method:
The library of 23 compounds contained leads with 60- to 150-fold enhanced ^1μMIC50 values.
CnFTase activity assay. The farnesyl transferase activity was measured by measuring the time dependence of the fluorescence emission intensity increase due to farnesylation of a dansylated peptide (Cassidy, P. B, et al., Methods Enzymol, 1995, 250, 30-43). Measurements were taken at room temperature in a 96-well black polystyrene, half area, flat bottom, non-binding surface plate using a SpectraMax M5e plate reader (excitation wavelength, 340 nm; emission wavelength 525 nm; emission high-pass filter, 455 nm). […] Final CnFTase concentrations (from 5× or 10× stocks in 20 mM Tris-HCl pH7.5, 20 mM NaCl, 5 μM ZnCl2, 1 mM TCEP, 1 mg/mL BSA): A, 20 nM; B: 4.4, 6.7, 10 nM triplets. […] For experiments that included phosphate, pH 7.5 stock was added to the desired final concentration. Data was analyzed using Python scripts for the Biomolecular Computing (BMC) package, included in the Dryad electronic repository. Data for determining ^1μMIC50 values (condition A) was collected in triplicate. Initial rates, vo, were extracted by fitting a straight line to the initial to tmax seconds of the reaction progress curves, where tmax values were selected by inspection and entered into curator tables for automated analysis. 1μMIC50 were determined by fitting a single-site Langmuir ligand-binding isotherm to the dependence of vo on inhibitor concentration (2, see below). All other experiments (condition B) […] used three different CnFTase concentrations, collecting progress curves as a function of FPP, inhibitor, and phosphate concentrations. The resulting triplet of progress curves was used to extract vo values automatically by minimizing
Single-site binding isotherms. Signals, S, resulting from a binding reaction were fit to
where α and β are the baselines associated with the apo-protein and its ligand complex, respectively, and y fractional occupancy of the binding site
If x is an inhibitor concentration, then IC50=Ka^−1. For Michaelis-Menten analysis 2 is reduced to a standard form (Bahar, I.; Jernigan, R. L.; Dill, K. A. Protein Actions, principles & modeling. Garland Science: 2017) with S=vo (initial rates), α=0, β=Vmax (maximal velocity), and KM=Ka^−1 (substrate dissociation constant). In general, baseline signals, σ, (α or β) can be constant, or linear functions of ligand concentration x

The target of the next data set is CnFTase (Cryptococcus neoformans, UniProt J9VSJ6+T2BPA1). In words: CnFTase steady-state kinetics fit to competitive/uncompetitive/mixed inhibition models. As to conditions: for inhibition mode: with respect to FPP.
Chain of CnFTase (J9VSJ6 entry or part of it): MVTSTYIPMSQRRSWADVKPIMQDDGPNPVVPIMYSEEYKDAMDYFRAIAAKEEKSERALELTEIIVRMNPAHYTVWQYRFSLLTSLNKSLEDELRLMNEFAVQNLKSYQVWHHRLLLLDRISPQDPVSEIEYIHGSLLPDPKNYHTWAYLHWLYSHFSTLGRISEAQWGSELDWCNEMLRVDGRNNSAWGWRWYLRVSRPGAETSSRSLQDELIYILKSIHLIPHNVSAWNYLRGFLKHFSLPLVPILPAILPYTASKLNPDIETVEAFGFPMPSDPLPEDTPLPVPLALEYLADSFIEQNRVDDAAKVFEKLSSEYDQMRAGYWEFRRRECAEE
Chain of CnFTase (T2BPA1 entry or part of it): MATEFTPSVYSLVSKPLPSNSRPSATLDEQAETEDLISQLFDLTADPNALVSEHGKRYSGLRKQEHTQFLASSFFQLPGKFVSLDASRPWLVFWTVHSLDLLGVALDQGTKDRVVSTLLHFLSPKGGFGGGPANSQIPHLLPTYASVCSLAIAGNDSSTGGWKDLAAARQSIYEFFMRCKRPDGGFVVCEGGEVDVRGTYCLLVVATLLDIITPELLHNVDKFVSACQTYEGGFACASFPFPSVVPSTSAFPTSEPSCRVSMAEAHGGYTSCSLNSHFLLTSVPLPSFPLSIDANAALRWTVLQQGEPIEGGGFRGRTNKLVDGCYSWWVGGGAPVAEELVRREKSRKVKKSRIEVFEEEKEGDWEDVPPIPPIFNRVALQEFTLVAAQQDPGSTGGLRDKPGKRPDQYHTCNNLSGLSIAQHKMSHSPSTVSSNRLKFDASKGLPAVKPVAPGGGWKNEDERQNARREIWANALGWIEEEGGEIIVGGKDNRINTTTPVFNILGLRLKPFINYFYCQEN
For data set [2], the system named is C. neoformans. In words: Minimum inhibitory concentration (MIC): disc diffusion and broth microdilution.
Procedure: Antifungal activity was determined by measuring minimum inhibitory concentrations (MIC) of C. neoformans by two methods: a solid medium disc diffusion assay and broth microdilution assay.
Disc diffusion assay. Overnight cultures of C. neoformans (about 18 hours) were normalized to OD600 0.6, diluted 1/10, and 200 μL of each sample were spread onto either a YPD or YPGal (yeast extract-peptone medium with 3% galactose) plate using sterile glass beads. After drying, 10 μL of compound or solvent control (DMSO) was added to sterile 6 mm filter discs on each plate. Plates were incubated for 48 hours at 37° C.
Minimum inhibitory concentration (MIC) assays. C. neoformans: Overnight cultures (˜18 h) of C. neoformans strains incubated in YPD medium were diluted to 500 cells/ml in RPMI medium buffered with MOPS. Cells were aliquoted (200 μL/well) in black-wall, clear-bottom 96-wells plates (Greiner). Compound stock solutions in DMSO ranged from 9 μM to 20 mM, and added to 200 μL cell suspension aliquoted in 96-well plates. Final aqueous concentrations ranged from 200 μM to 0.09 μM, limiting DMSO to 1%. After 48-hr incubation at 37° C. or 30° C. for 48 h, 10% AlamarBlue (BioRad) was added. The end-point fluorescence intensity of reduced AlamarBlue was measured using a fluorescence plate reader (FLUORStar Optima plate reader) at the time point the indicator turned from blue to pink in healthy control cells.^51 Assays were performed in duplicate.
For data set [3], the system named is C. neoformans. The conditions noted are these: cited from earlier work.
In the next data set the test system is C. neoformans biofilms. Kind of data set: Biofilm inhibition. The data set is classed as cell-based, Cryptococcus neoformans.
Data set [4] deals with J774A.1 macrophage-like murine cells. As to conditions: mouse, 24 h.
Procedure: Macrophage cytotoxicity assays. […] 2 μL of the serially diluted compound were transferred to a 96-well plate containing 200 μL DMEM (100× dilution). J774A.1, a macrophage-like murine cell line, was incubated in DMEM (Dulbecco's Modified Eagle Medium, Sigma-Aldrich) to 70% confluency, harvested, washed in PBS, then transferred to black, clear-bottom 96-well plates (Greiner) at 10^5 cells/well. Plates were incubated overnight at 37° C. and 5% CO2. The macrophage medium covering the J774A.1 monolayer was replaced with 100 μL of DMEM containing the serially diluted inhibitors (50× dilution) and incubated for 24 h at 37° C. and 5% CO2. Macrophage viability was assessed at 24 h by the addition of 10% AlamarBlue and incubating for 3 h at 37° C. and 5% CO2 prior to fluorescence measurement (FLUORStar Optima plate reader). Assays were performed in duplicate.
Data set [5] has as its system Gfp-Ras1 localization in C. neoformans. Kind of data set: Ras1 cellular localization by fluorescent microscopy. Format: cell-based, Cryptococcus neoformans. The conditions noted are these: sub-lethal concentrations; 0.78 μM (sub-inhibitory). The method, then: (§1) FIG. 3. CnFTase is the in vivo target of 2f. (A) Ras cellular mislocalization, assessed by epifluorescent microscopy (1000×). Bar=10 μm. Top. […] Bottom. Control patterns of Ras localization with wild-type (left) and ram1Δ deletion (right) strains expressing mCherry-Ras1. […] A C. neoformans strain transformed with the galactose-regulated pGAL7-RAM1 over-expression construct was incubated with glucose (uninduced, bottom), and galactose (induced, top). Antifungal activity was assessed by the relative size of the zone of fungal growth inhibition surrounding sterile discs impregnated with 10 μL of 20 mM 2f dissolved in DMSO (bottom disk) or DMSO alone (top disc).
Compound 2f inhibited FTase activity in vivo. […] Both effects are consistent with CnFTase being the target of Compound 2f, as expected.
Microscopy. […] A drug-free control sample contained 1% DMSO. Ras1 localization in a ram1Δ mutant strain was determined in a similar manner: a ram1Δ mutant and wild-type strain, each expressing mCherry-Ras1 under a constitutive promoter (CBN121 and SKE17) were incubated overnight in YPD medium at 30° C., diluted to OD600 0.1 in YPD, then incubated for 24 hours at 37° C. All cells were visualized and imaged by fluorescent microscopy at 1000× magnification using a Zeiss Imager A1 microscope and Zeiss Axio-Cam MRM digital camera. […]

Data set [6] relates to Schizosaccharomyces pombe. Kind of data set: S. pombe MIC assay (efflux effects). As to conditions: for MIC: Schizosaccharomyces pombe.
Another data set addresses mammalian FTase (Homo sapiens, UniProt P49354+P49356). In words: Inhibition of mammalian FTase. The data set is classed as biochemical.
Data set [7] concerns the target CnFTase (C. neoformans farnesyl transferase, α/β heterodimer) (Cryptococcus neoformans, UniProt J9VSJ6+T2BPA1). Kind of data set: CnFTase activity assay: farnesylation of a dansylated (fluorescent) peptide, inhibitor concentration giving half-maximal enzyme rates at 1 μM FPP (1μMIC50). The conditions noted are these: read-out: CnFTase IC50 (1μMIC50), condition A: 20 nM CnFTase, dansyl-GCVVM 0.62 μM, Tris-HCl pH 7.5, ZnCl2 12.5 μM, 2.5% DMSO, room temperature, triplicate.
Procedure: CnFTase activity assay. […] Final CnFTase concentrations (from 5× or 10× stocks in 20 mM Tris-HCl pH7.5, 20 mM NaCl, 5 μM ZnCl2, 1 mM TCEP, 1 mg/mL BSA): A, 20 nM; B: 4.4, 6.7, 10 nM triplets. […] For experiments that included phosphate, pH 7.5 stock was added to the desired final concentration. […] Data for determining ^1μMIC50 values (condition A) was collected in triplicate. Initial rates, vo, were extracted by fitting a straight line to the initial to tmax seconds of the reaction progress curves, where tmax values were selected by inspection and entered into curator tables for automated analysis. 1μMIC50 were determined by fitting a single-site Langmuir ligand-binding isotherm to the dependence of vo on inhibitor concentration (2, see below). All other experiments (condition B) all other experiments (condition B) used three different CnFTase concentrations, collecting progress curves as a function of FPP, inhibitor, and phosphate concentrations. The resulting triplet of progress curves was used to extract vo values automatically by minimizing
If x is an inhibitor concentration, then IC50=Ka^−1. […] In general, baseline signals, σ, (α or β) can be constant, or linear functions of ligand concentration x

The test system of data set [8] is C. neoformans strain over-expressing CnFTase (pGAL7-RAM1). In words: Disc diffusion assay with galactose-inducible RAM1 over-expression. The conditions noted are these: galactose induced; discs with 10 μL of 20 mM. The data set is classed as cell-based, Cryptococcus neoformans. The method, then:
as §1
Molecular Biology. […] To induce C. neoformans mating, strains of opposite mating types were co-cultured on MS medium at 25° C. for seven days (Murashige, T, et al., Physiol Plantarum, 1962, 15, 473-497). A C. neoformans strain with a galactose-inducible RAM1 allele (CBN482) was similarly created with primers designed to create an overlap construct comprising the C. neoformans RAM1 5′ sequence-neomycin resistance cassette-GAL7 promoter-RAM1 coding sequence (FIG. 9) to precisely replace the RAM1 promoter with the GAL7 galactose inducible when introduced into the H99 genome by biolistic transformation.
Disc diffusion assay. […]
(In general: A growth-free zone around the sample is the usual read-out of agar diffusion tests.)

The subject of data set [9] is C. neoformans FTase (CnFTase). The conditions noted are these: Hast et al. 2011; cited from earlier work.

Molecules are shown by their SMILES. In brackets after ≈: the same amount, converted by molar mass. Entries after “also recorded” stand apart in the source; their conditions may differ. Like-named read-outs stand apart in the source and are kept apart here.

Chain of CnFTase (C. neoformans farnesyl transferase, α/β heterodimer) (J9VSJ6 entry or part of it): as the sequence (J9VSJ6 entry or part of it) above
Chain of CnFTase (C. neoformans farnesyl transferase, α/β heterodimer) (T2BPA1 entry or part of it): as the sequence (T2BPA1 entry or part of it) above
Chain of mammalian FTase (P49356 whole entry, one chain of several): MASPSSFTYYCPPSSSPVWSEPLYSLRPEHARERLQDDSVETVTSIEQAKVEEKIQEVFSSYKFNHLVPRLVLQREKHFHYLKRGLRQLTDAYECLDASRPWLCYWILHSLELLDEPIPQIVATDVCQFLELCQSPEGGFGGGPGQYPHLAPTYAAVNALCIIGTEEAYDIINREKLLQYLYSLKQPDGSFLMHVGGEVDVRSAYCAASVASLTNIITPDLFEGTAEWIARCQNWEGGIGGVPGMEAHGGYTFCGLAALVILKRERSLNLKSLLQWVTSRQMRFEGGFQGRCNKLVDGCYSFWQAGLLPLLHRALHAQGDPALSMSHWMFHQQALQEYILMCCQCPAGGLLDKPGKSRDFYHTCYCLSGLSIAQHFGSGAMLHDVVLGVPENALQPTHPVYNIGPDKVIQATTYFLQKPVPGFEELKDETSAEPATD

As to `CCCC[C@H]1CN(c2cccc(OC(F)(F)F)c2)C(=O)CN1Cc1cncn1Cc1ccc(C#N)c(F)c1` [Compound 2q, (S)-4-((5-((2-Butyl-5-oxo-4-(3-(trifluoromethoxy)-phenyl)piperazin-1-yl)methyl)-1H-imidazol-1-yl)methyl)-2-fluorobenzonitrile], in data set [1] (1 μM FPP, relative to L-778,123), the “improvement of 1μMIC50 over L-778,123” value is recorded as 150 fold. Also, the “change of affinity relative to the comparator analogue (cf.)” value in data set [1] (pairwise comparison of analogues differing in one R group) is 9 fold. At CnFTase, the Ki turned out to be 4 nM and the inhibition mode result is “purely uncompetitive inhibitor”. For the same molecule, the “improvement of uncompetitive binding affinity in the H state” value at CnFTase (H state vs L state) is reported as approximately 10%. Further, in the data set with C. neoformans [2] (C. neoformans), the antifungal activity entry is recorded as “barely exhibited antifungal activity”.
`OC(Cn1cncn1)(Cn1cncn1)c1ccc(F)cc1F` [fluconazole]: in the data set with C. neoformans [3] (C. neoformans, Bongomin et al. 2018), the MIC was not below 8 µg/mL.
In general, IC50 refers to the concentration needed to halve the response being measured. Take `CCCC[C@H]1CN(c2cccc(OC(F)(F)F)c2)C(=O)CN1Cc1cncn1Cc1ccc(Br)cc1` [Compound 2f, (S)-4-((1-(4-Bromobenzyl)-1H-imidazol-5-yl)methyl)-5-butyl-1-(3-(trifluoromethoxy)phenyl)piperazin-2-one]: in the data set on C. neoformans biofilms, the biofilm inhibition entry is recorded as “inhibits C. neoformans biofilms”. For the same molecule, the MIC in data set [4] was 200 µM (≈ 113 µg/mL); in [6] (efflux-defective strain MJ-1682) it was 1.5 µM (≈ 0.848 µg/mL); in data set [6] (wild-type S. pombe) it was 12.5 µM (≈ 7.07 µg/mL); in the data set on C. neoformans [2] (Cryptococcus neoformans) it was 3 to 6 µM (≈ 1.7 to 3.39 µg/mL). The Gfp-Ras1 localization entry in [5] was “remains in the cytoplasm; also recorded: does not localize to the plasma membrane”. In addition, in data set [6] (MJ-1682 vs wild-type), the “MIC improvement in efflux-defective strain” value is on record as “eight-fold”. Moreover, the “IC50 on mammalian FTase, worse than on the fungal enzyme” value at mammalian FTase is listed as “about 30 fold”. In data set [7], the 50% inhibitory concentration (IC50) stood at 190 ± 60 nM. Further, on CnFTase (H state vs L state), the “improvement of competitive affinity in the H state” value is given as approximately 100 fold. The “competitive affinity better than the uncompetitive value” on CnFTase (H state, 10 mM phosphate) is on record as approximately 170 fold. In addition, the Ki on CnFTase (HKU, uncompetitive inhibitor affinity (dissociation constant), H state, 10 mM phosphate (H state)) is 500 nM; at CnFTase (LKU, uncompetitive inhibitor affinity (dissociation constant), L state, absence of phosphate (L state)) it was 750 nM; at CnFTase (read-out: HKC, competitive inhibitor affinity (dissociation constant), H state, 10 mM phosphate (H state)), 3 nM; on CnFTase (read-out: LKC, competitive inhibitor affinity (dissociation constant), L state, absence of phosphate (L state)), 320 nM. Besides, the inhibition mode result on CnFTase was “mixture of two binding modes: uncompetitive like Compound 2q, and a competitive mode that displaces FPP”. Further, the “effect of CnFTase (Ram1) over-expression on antifungal activity” value in [8] is “negates 2f antifungal activity; also recorded: negated antifungal activity”.
Consider `N#Cc1ccc(Cn2cncc2CN2CCN(c3cccc(Cl)c3)C(=O)C2)cc1` [L-778,123], for which the “inhibition of C. neoformans FTase (CnFTase)” value in data set [9] is “modest inhibition”. In addition, the antifungal activity result in the data set with C. neoformans [3] (Hast et al. 2011) was “did not have antifungal activity”.
